Test results reported in the supplement of paper PMC10627819.
Values after ≈ are worked out from the molar mass of the structure shown.

Assays:
B. subtilis 168 [1] = tested on: B. subtilis 168
S. aureus DSM 20231 [2] = tested on: S. aureus DSM 20231
B. subtilis 168 [3] = experiment: fitness (endpoint OD595 vs no drug) (fraction); higher = more growth
Method in brief: (§1)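 Volumes were 30 µl per well, or 55 µl for S. pneumoniae, in 384-well plates inoculated at OD595 0.01. Media were TSB, LB Lennox or CY at 37 °C, and OD595 was read every 30 min for 14 h with first-reading background subtraction. Fitness is the ratio of optical density at stationary-phase entry to the robust mean of no-drug controls. That ratio is capped at 1.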

S. pneumoniae D39V [4] = experiment: as above
Method in brief: as §1

S. pneumoniae D39V [5] = tested on: S. pneumoniae D39V
S. aureus Newman [6] = tested on: S. aureus Newman
S. aureus Newman [7] = experiment: fitness (endpoint OD595 vs no drug) (fraction); higher = more growth
Method in brief: as §1

S. aureus DSM 20231 [8] = experiment: as above
Method in brief: as §1

C[C@H]1c2cccc(O)c2C(=O)C2=C(O)[C@]3(O)C(=O)C(C(N)=O)=C(O)[C@@H](N(C)C)[C@@H]3[C@@H](O)[C@@H]21 [Doxycycline]
Conditions	MIC [µg/mL]
B. subtilis 168 [1]	0.08 (≈ 0.18 µM)
S. aureus DSM 20231 [2]	0.034 (≈ 0.0765 µM)

fitness
Conditions	0.0155 µg/mL	0.02 µg/mL	0.031 µg/mL	0.04 µg/mL	0.062 µg/mL	0.08 µg/mL
B. subtilis 168 [3]	–	0.876	–	0.754	–	0.457
S. pneumoniae D39V [4]	0.789	–	0.73	–	0.59	–

N#CC(C#N)=NNc1cccc(Cl)c1 [CCCP]
Conditions	MIC [µg/mL]
B. subtilis 168 [1]	2.3 (≈ 11.2 µM)
S. pneumoniae D39V [5]	4.5 (≈ 22 µM)

S. pneumoniae D39V [4]
Conditions	fitness
0.575 µg/mL	0.981
1.15 µg/mL	0.968
2.3 µg/mL	0.942

CN(C)c1cc(NC(=O)CNC(C)(C)C)c(O)c2c1C[C@H]1C[C@H]3[C@H](N(C)C)C(O)=C(C(N)=O)C(=O)[C@@]3(O)C(O)=C1C2=O [Tigecycline]
Conditions	MIC [µg/mL]
B. subtilis 168 [1]	0.312 (≈ 0.533 µM)
S. aureus DSM 20231 [2]	0.18 (≈ 0.307 µM)
S. aureus Newman [6]	0.18 (≈ 0.307 µM)
S. pneumoniae D39V [5]	3 (≈ 5.12 µM)

Conditions	fitness
B. subtilis 168 [3], 0.039 µg/mL	0.953
B. subtilis 168 [3], 0.078 µg/mL	0.95
B. subtilis 168 [3], 0.156 µg/mL	0.933
S. aureus Newman [7], 0.039 µg/mL	0.975
S. aureus Newman [7], 0.078 µg/mL	0.959
S. aureus Newman [7], 0.156 µg/mL	0.973
S. pneumoniae D39V [4], 0.325 µg/mL	0.971
S. pneumoniae D39V [4], 0.65 µg/mL	0.959
S. pneumoniae D39V [4], 1.3 µg/mL	0.966
S. pneumoniae D39V [4], 2.6 µg/mL	0.965

O=C(O)c1cn(C2CC2)c2cc(N3CCNCC3)c(F)cc2c1=O [Ciprofloxacin]
Conditions	MIC [µg/mL]
S. aureus DSM 20231 [2]	0.312 (≈ 0.942 µM)
S. aureus Newman [6]	0.156 (≈ 0.471 µM)
S. pneumoniae D39V [5]	1 (≈ 3.02 µM)

fitness
Conditions	0.0098 µg/mL	0.0195 µg/mL	0.0375 µg/mL	0.039 µg/mL	0.075 µg/mL	0.078 µg/mL	0.15 µg/mL	0.156 µg/mL	0.312 µg/mL
B. subtilis 168 [3]	0.871	0.777	–	0.135	–	–	–	–	–
S. aureus DSM 20231 [8]	–	–	1	–	0.978	0.899	0.77	0.754	0.456
S. aureus Newman [7]	–	–	0.801	–	0.597	0.708	0.0387	0.267	0.0879

CO/N=C(\C(=O)N[C@@H]1C(=O)N2C(C(=O)O)=C(COC(C)=O)CS[C@H]12)c1csc(N)n1 [Cefotaxime]
Conditions	MIC [µg/mL]
S. aureus DSM 20231 [2]	0.173 (≈ 0.38 µM)
S. aureus Newman [6]	2.5 (≈ 5.49 µM)
S. pneumoniae D39V [5]	0.008 (≈ 0.0176 µM)

Conditions	fitness
B. subtilis 168 [3], 0.0625 µg/mL	0.477
B. subtilis 168 [3], 0.125 µg/mL	0.338
B. subtilis 168 [3], 0.25 µg/mL	0.205
B. subtilis 168 [3], 0.5 µg/mL	0.113
B. subtilis 168 [3], 1 µg/mL	0.0654
B. subtilis 168 [3], 2 µg/mL	0.0508
S. aureus DSM 20231 [8], 0.039 µg/mL	0.935
S. aureus DSM 20231 [8], 0.078 µg/mL	0.869
S. aureus DSM 20231 [8], 0.155 µg/mL	0.951
S. aureus DSM 20231 [8], 0.156 µg/mL	0.844
S. aureus DSM 20231 [8], 0.31 µg/mL	0.825
S. aureus DSM 20231 [8], 0.312 µg/mL	0.676
S. aureus DSM 20231 [8], 0.62 µg/mL	0.669
S. aureus Newman [7], 0.039 µg/mL	0.829
S. aureus Newman [7], 0.078 µg/mL	0.786
S. aureus Newman [7], 0.156 µg/mL	0.729
S. aureus Newman [7], 0.312 µg/mL	0.462
S. aureus Newman [7], 0.625 µg/mL	0.0743
S. aureus Newman [7], 1.25 µg/mL	0.022
S. aureus Newman [7], 2.5 µg/mL	0.021
S. pneumoniae D39V [4], 0.0018 µg/mL	≥ 1
S. pneumoniae D39V [4], 0.0035 µg/mL	0.998
S. pneumoniae D39V [4], 0.007 µg/mL	0.83
